Several values for one entry are separate records, joined by “and”; a condition that tells them apart may be missing. Identical values can stand only once. Entries after “also recorded” stand apart in the source; their conditions may differ. Like-named read-outs stand apart in the source and are kept apart here.
Experiments:
Akt1 [1] = target: T1, Akt1 (Homo sapiens, UniProt P31749); assay: Akt1 inhibition assay using GSK-3 as a substrate (immuno-blotting with anti-phospho-GSK-3α/β); type: biochemical
T1 sequence (P31749 whole entry): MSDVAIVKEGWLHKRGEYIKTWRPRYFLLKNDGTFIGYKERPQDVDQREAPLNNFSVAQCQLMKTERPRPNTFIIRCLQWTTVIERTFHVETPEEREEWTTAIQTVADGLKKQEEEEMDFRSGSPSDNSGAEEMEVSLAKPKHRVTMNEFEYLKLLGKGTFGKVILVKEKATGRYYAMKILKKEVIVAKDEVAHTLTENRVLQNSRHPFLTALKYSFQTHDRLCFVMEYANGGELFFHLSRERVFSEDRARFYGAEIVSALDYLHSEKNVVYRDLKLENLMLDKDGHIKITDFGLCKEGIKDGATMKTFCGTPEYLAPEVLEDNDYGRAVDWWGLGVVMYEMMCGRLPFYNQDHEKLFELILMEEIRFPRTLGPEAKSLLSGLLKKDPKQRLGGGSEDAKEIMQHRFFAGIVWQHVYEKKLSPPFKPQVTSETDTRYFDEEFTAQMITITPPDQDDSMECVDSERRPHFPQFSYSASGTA
Protocol: Here the top 4000 compounds out of 50000 docked compounds were selected using FlexX and Drugscore (BioSolvIT). The top 4000 docked structures were further evaluated and ranked according to Goldscore and Chemscore functions (CSCORE). A list of common 200 compounds was then selected among ranked top 700 compounds according to both scoring functions (FIG. 1B). […] The remaining 100 compounds were experimentally tested up to 30 μM against Akt1. The inhibitory activity was evaluated for the selected compounds by using Z'-LYTE™ kit assay provided by Invitrogen Corporation (19). […] Corning® 384-well low volume plates (20 μl) were used. The fluorescent-enzymatic assay has been performed following the protocol provided by Invitrogen Corporation, using a fluorescent plate reader (Victor2, Perkin-Elmer). […] C) Lineweaver-Burk Km and Km(app) evaluation for Akt1. Each measurement was performed in triplicate. […] The Ki and the Km(app) were calculated at fixed inhibitor concentrations, as reported in the text. All constant values were definitely evaluated by fitting the data to the Lineweaver-Burk plot; D) Akt1 inhibition assay using GSK-3 as a substrate. Comparison of compounds 1 and 2 (Table 1) with H89 at 10 μM. E) Dose response for compound 1. […]

Akt1 [2] = target: T1, Akt1; assay: Akt1 inhibition, Z'-LYTE kit fluorescent-enzymatic assay; type: biochemical; conditions: for Ki: 10 μM compound 1, 20 μM compound 2, 50 μM compound 3, increasing ATP, Lineweaver-Burk
Protocol: Here the top 4000 compounds out of 50000 docked compounds were selected using FlexX and Drugscore (BioSolvIT). The top 4000 docked structures were further evaluated and ranked according to Goldscore and Chemscore functions (CSCORE). A list of common 200 compounds was then selected among ranked top 700 compounds according to both scoring functions (FIG. 1B). […] The remaining 100 compounds were experimentally tested up to 30 μM against Akt1. The inhibitory activity was evaluated for the selected compounds by using Z'-LYTE™ kit assay provided by Invitrogen Corporation (19). […] Corning® 384-well low volume plates (20 μl) were used. The fluorescent-enzymatic assay has been performed following the protocol provided by Invitrogen Corporation, using a fluorescent plate reader (Victor2, Perkin-Elmer). […] C) Lineweaver-Burk Km and Km(app) evaluation for Akt1. Each measurement was performed in triplicate. […] The Ki and the Km(app) were calculated at fixed inhibitor concentrations, as reported in the text. All constant values were definitely evaluated by fitting the data to the Lineweaver-Burk plot; D) Akt1 inhibition assay using GSK-3 as a substrate. Comparison of compounds 1 and 2 (Table 1) with H89 at 10 μM. E) Dose response for compound 1. Akt (10 ng of recombinant enzyme) in 25 μl 1× kinase buffer (25 mM Tris, pH 7.5; 5 mM n-glycerol phosphate; 2 mM dithiothreitol; 0.1 mM Na3VO4; and 10 mM MgCl2), was mixed with 2.5 μl DMSO (1% stock) or MPA-D (100 μM in 1% DMSO). Samples were incubated on ice for 1.5 hours at which time 1 μg of GSK-3 fusion protein (Cell Signaling), which served as the substrate, was added followed by ATP (200 μM) to each reaction mixture. After the suspensions were incubated at 30° C. for 20 min, the reaction was terminated by the addition of 3×SDS sample buffer (187.5 mM Tris-HCl, pH 6.8; 6% SDS; 30% glycerol; 150 mM dithiothreitol; and 0.03% bromophenol blue). The samples were boiled for 5 min, and the proteins were separated on a 12% SDS polyacrylamide gel and subsequently transferred to a nitrocellulose membrane. Membranes were incubated with rabbit polyclonal anti-phospho-GSK-3α/β (Ser21/9) (Cell Signaling).
For these purposes, we initially determined the Km and the Vmax of the enzymatic reaction involving the peptide provided by the Z'-LYTE™ kit assay and Akt1 by varying the concentration of ATP. The above parameters appeared to be 7.9 μM and 0.0205 μmol min^−1 mg^−1, respectively. […] Because all our inhibitors affected the Km rather than the Vmax of the reaction (FIG. 2C), they can be truly considered ATP-competitive inhibitors of Akt1.

[3] = FIG. 2 legend, read-out: IC50 value
[4] = Table 2, derivatives of Compound 1, read-out: IC50

| Compound | inhibition of GSK-3 phosphorylation (Akt1 [1]) | IC50 values (in words) (Akt1 [2]) | Ki (Akt1 [2]) | IC50 (Akt1 [2]; [3]) | Hill slope (Akt1 [2]; IC50 curve, FIG. 2A) | IC50 (Akt1 [2]; Table 1, read-out: IC50) | IC50 (Akt1 [2]; [4]) | inhibitory activity against Akt1 kinase (in words) (Akt1 [2]) |
| --- | --- | --- | --- | --- | --- | --- | --- | --- |
| CC1=C(C#N)c2nc(N)c(C#N)c(C)c2/C1=C/c1ccc(-c2ccc(C(=O)O)c(Cl)c2)o1 [Compound 1] | low micromolar range | low-micromolar range | 1100 nM | 2300 nM and 2600 nM | 1.1 | 2600 nM | 2600 nM |  |
| O=C(O)c1cc(-c2ccc(C=C3C(=O)c4ccccc4C3=O)o2)ccc1O [Compound 3] |  |  | 20800 nM | 25100 nM |  |  |  |  |
| CC1=C(C#N)c2nc(N)c(C#N)c(C)c2C1=Cc1ccc(-c2ccc(C(=O)O)cc2)o1 [Compound 4] |  |  |  |  |  |  |  | appreciable inhibition in the micromolar range; also recorded: limited inhibitory activity |
| CC1=C(C#N)c2nc(N)c(C#N)c(C)c2C1=Cc1ccc(-c2cccc(C(=O)O)c2)o1 [Compound 5] |  |  |  |  |  |  | 60200 nM | appreciable inhibition in the micromolar range; also recorded: limited inhibitory activity |

From patent US20120190707A1, “SELECTIVE INHIBITORS OF AKT AND METHODS OF USING SAME” (priority 2008, published 2012)
